Assays:
5HT1A = target: T1, 5HT1A (Homo sapiens, UniProt P08908); test: R-SAT broad profiling; format: cell-based; parameters: expressed in transfected cells; host or cells: NIH3T3; settings: agonist; read-out: pEC50 or pIC50 (converted)
T1 sequence (P08908 1-422): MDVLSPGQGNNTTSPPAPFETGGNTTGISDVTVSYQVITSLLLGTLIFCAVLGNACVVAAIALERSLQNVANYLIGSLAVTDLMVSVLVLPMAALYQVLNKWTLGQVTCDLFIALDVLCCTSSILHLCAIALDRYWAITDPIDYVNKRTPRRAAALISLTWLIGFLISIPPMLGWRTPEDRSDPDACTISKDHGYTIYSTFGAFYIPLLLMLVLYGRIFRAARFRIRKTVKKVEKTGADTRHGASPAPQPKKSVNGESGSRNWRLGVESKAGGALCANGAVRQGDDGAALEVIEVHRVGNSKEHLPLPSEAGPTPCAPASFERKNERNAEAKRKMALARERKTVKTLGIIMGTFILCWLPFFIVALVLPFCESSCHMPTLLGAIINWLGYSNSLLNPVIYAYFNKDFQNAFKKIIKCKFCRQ
Method: (§1) The functional receptor assay, Receptor Selection and Amplification Technology (R-SAT), was used (with minor modifications from that previously described U.S. Pat. No. 5,707,798) to screen compounds for efficacy at the 5-HT2A receptor. Briefly, NIH3T3 cells were grown in 96 well tissue culture plates to 70-80% confluence. Cells were transfected for 12-16 hours with plasmid DNAs using superfect (Qiagen Inc.) as per manufacture's protocols. R-SAT's were generally performed with 50 ng/well of receptor and 20 ng/well of Beta-galactosidase plasmid DNA. All receptor and G-protein constructs used were in the pSI mammalian expression vector (Promega Inc) as described in U.S. Pat. No. 5,707,798. The 5HT2A receptor gene was amplified by nested PCR from brain cDNA using the oligodeoxynucleotides based on the published sequence (see Saltzman et. al. Biochem. Biophys. Res. Comm. 181:1469-78 (1991)). Large-scale transfections, cells were transfected for 12-16 hours, then trypsinized and frozen in DMSO. Frozen cells were later thawed, plated at 10,000-40,000 cells per well of a 96 well plate that contained drug. With both methods, cells were then grown in a humidified atmosphere with 5% ambient CO2 for five days. Media was then removed from the plates and marker gene activity was measured by the addition of the beta-galactosidase substrate ONPG (in PBS with 5% NP-40). The resulting colorimetric reaction was measured in a spectrophotometric plate reader (Titertek Inc.)at […]. All data were analyzed using the computer program XLFit (IDBSm). Efficacy is the percent maximal repression compared to repression by a control compound (ritanserin in the case of 5HT2A). pIC50 is the negative of the log(IC50), where IC50 is the calculated concentration in Molar that produces 50% maximal repression.
(§2) The R-SAT assay (described above in example 289) was used to investigate the selectivity of 4-(4-Fluoro-benzyl)-3-(4-isobutoxy-benzyl)-8-methyl-1-oxa-3,8-diaza-spiro[4.5]decan-2-one.

5HT2C = target: T2, 5HT2C (Homo sapiens, UniProt P28335); test: R-SAT broad profiling; format: cell-based; parameters: expressed in transfected cells; host or cells: NIH3T3
T2 sequence (P28335 33-458): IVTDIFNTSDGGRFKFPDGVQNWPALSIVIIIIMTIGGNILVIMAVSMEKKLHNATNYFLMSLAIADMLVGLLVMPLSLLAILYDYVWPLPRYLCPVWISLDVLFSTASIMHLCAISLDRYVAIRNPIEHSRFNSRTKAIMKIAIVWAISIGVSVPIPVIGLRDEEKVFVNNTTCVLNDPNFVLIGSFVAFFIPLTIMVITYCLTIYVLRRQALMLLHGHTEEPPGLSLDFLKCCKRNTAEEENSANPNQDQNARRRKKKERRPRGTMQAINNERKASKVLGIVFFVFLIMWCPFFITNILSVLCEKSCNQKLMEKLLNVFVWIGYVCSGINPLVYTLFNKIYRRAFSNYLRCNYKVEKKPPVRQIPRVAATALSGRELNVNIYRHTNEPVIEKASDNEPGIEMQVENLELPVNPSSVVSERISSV
Method: as §1, §2

With `CC(C)COc1ccc(CN2C(=O)OC3(CCN(C)CC3)C2Cc2ccc(F)cc2)cc1.Cl` (racemic) [Example 69NLS75, 4-(4-Fluorobenzyl)-3-(4-isobutoxybenzyl)-8-methyl-1-oxa-3,8-diazaspiro[4.5]decan-2-one, hydrochloride] as the compound, how does the EC50 (5HT1A) read?
Its EC50 is > 3.16 µM.

And the EC50 (5HT2C; agonist, read-out: pEC50 or pIC50 (converted))?
Its EC50 is > 3.16 µM.

And the efficacy in brackets (5HT2C; inverse)?
The efficacy in brackets was 77%.

Source: patent US20080051429A1, “USE OF 4-AMINO-PIPERIDINES FOR TREATING SLEEP DISORDERS” (priority 2006, published 2008)
